# Test results reported in ChEMBL document CHEMBL4765407, “Design, synthesis and high antitumor potential of new unsymmetrical bisacridine derivatives towards human solid tumors, specifically pancreatic cancers and their unique ability to stabilize DNA G-quadruplexes” (Eur J Med Chem, 2020).
# Experiments:
# [1] = tested on: DU-145; experiment: Cytotoxicity against human DU-145 cells assessed as reduction in cell viability measured after 72 hrs by SRB assay; assay type: functional, cell-based; conditions: DU-145, 72 h
# [2] = tested on: NCI-H460; experiment: Cytotoxicity against human NCI-H460 cells assessed as reduction in cell viability measured after 72 hrs by SRB assay; assay type: functional, cell-based; conditions: NCI-H460, 72 h
# [3] = tested on: HCT-116; experiment: Cytotoxicity against human HCT-116 cells assessed as reduction in cell viability measured after 72 hrs by SRB assay; assay type: functional, cell-based; conditions: HCT-116, 72 h
# [4] = tested on: PANC-1; experiment: Cytotoxicity against human PANC-1 cells assessed as reduction in cell viability measured after 72 hrs by SRB assay; assay type: functional, cell-based; conditions: PANC-1, 72 h
# [5] = tested on: MIA PaCa-2; experiment: Cytotoxicity against human MIA PaCa-2 cells assessed as reduction in cell viability measured after 72 hrs by SRB assay; assay type: functional, cell-based; conditions: MIA PaCa-2, 72 h
# [6] = tested on: BXPC-3; experiment: Cytotoxicity against human BXPC-3 cells assessed as reduction in cell viability measured after 72 hrs by SRB assay; assay type: functional, cell-based; conditions: BXPC-3, 72 h
# [7] = tested on: ASPC1; experiment: Cytotoxicity against human ASPC1 cells assessed as reduction in cell viability measured after 72 hrs by SRB assay; assay type: functional, cell-based; conditions: ASPC1, 72 h
# [8] = tested on: BXPC-3; experiment: Antitumour activity against human BXPC-3 cells xenografted in Crl:Nu-Foxnl nu mouse assessed as inhibition of tumour growth at total effective dose of 160 mg/kg, iv measured on day 36; assay type: functional; conditions: BXPC-3, iv, 864 h, time 36 day, read-out: TGI
# [9] = tested on: BXPC-3; experiment: Antitumour activity against human BXPC-3 cells xenografted in Crl:Nu-Foxnl nu mouse assessed as inhibition of tumour growth at total effective dose of 160 mg/kg, iv measured on day 32; assay type: functional; conditions: BXPC-3, iv, 768 h, time 32 day, read-out: TGI
# [10] = tested on: MDA-MB-231; experiment: Antitumour activity against human MDA-MB-231 cells xenografted in Crl:Nu-Foxnl nu mouse assessed as inhibition of tumour growth at total effective dose of 120 mg/kg, iv measured on day 32; assay type: functional; conditions: MDA-MB-231, iv, 768 h, time 32 day, read-out: TGI
# [11] = tested on: Quadruplex DNA; experiment: Stabilization of 5'-FAM/3'-TAMRA labeled c-Myc promoter G4 quadruplex DNA FPu18 (unknown origin) assessed as change in melting temperature at 10 microM measured after 15 mins by FRET assay; assay type: nucleic-acid assay
# [12] = tested on: Quadruplex DNA; experiment: Stabilization of 5'-FAM/3'-TAMRA labeled telomeric G4 quadruplex DNA F21T (unknown origin) assessed as change in melting temperature at 10 microM measured after 15 mins by FRET assay; assay type: nucleic-acid assay
# [13] = tested on: Quadruplex DNA; experiment: Stabilization of 5'-FAM/3'-TAMRA labeled K-Ras G4 quadruplex DNA (unknown origin) assessed as change in melting temperature at 10 microM measured after 15 mins by FRET assay; assay type: nucleic-acid assay
# [14] = Stabilization of ds 5'-FAM-d(TATAGCTATA-HEG-TATAGCTATA)-TAMRA-3' (unknown origin) assessed as change in melting temperature at 10 microM measured after 15 mins by FRET assay; conditions: Homo sapiens
# [15] = tested on: MCF7; experiment: Cytotoxicity against human MCF7 cells assessed as reduction in cell viability measured after 72 hrs by SRB assay; assay type: functional, cell-based; conditions: MCF7, 72 h
# [16] = tested on: MDA-MB-231; experiment: Cytotoxicity against human MDA-MB-231 cells assessed as reduction in cell viability measured after 72 hrs by SRB assay; assay type: functional, cell-based; conditions: MDA-MB-231, 72 h
# [17] = tested on: Capan-2; experiment: Cytotoxicity against human Capan-2 cells assessed as reduction in cell viability measured after 72 hrs by SRB assay; assay type: functional, cell-based; conditions: Capan-2, 72 h
# [18] = tested on: PANC-1; experiment: Antitumour activity against human PANC-1 cells xenografted in Crl:Nu-Foxnl nu mouse assessed as inhibition of tumour growth at total effective dose of 16 mg/kg, iv measured on day 38; assay type: functional; conditions: PANC-1, iv, 912 h, time 38 day, read-out: TGI
# [19] = tested on: PANC-1; experiment: Antitumour activity against human PANC-1 cells xenografted in Crl:Nu-Foxnl nu mouse assessed as inhibition of tumour growth at total effective dose of 16 mg/kg, iv measured on day 60; assay type: functional; conditions: PANC-1, iv, 1440 h, time 60 day, read-out: TGI
# [20] = tested on: ASPC1; experiment: Antitumour activity against human ASPC1 cells xenografted in Crl:Nu-Foxnl nu mouse assessed as inhibition of tumour growth at total effective dose of 48 mg/kg, iv measured on day 36; assay type: functional; conditions: 864 h, time 36 day, read-out: TGI
# [21] = tested on: PANC-1; experiment: Antitumour activity against human PANC-1 cells xenografted in Crl:Nu-Foxnl nu mouse assessed as inhibition of tumour growth at total effective dose of 16 mg/kg, iv measured on day 47; assay type: functional; conditions: PANC-1, iv, 1128 h, time 47 day, read-out: TGI
# [22] = tested on: PANC-1; experiment: Antitumour activity against human PANC-1 cells xenografted in Crl:Nu-Foxnl nu mouse assessed as inhibition of tumour growth at total effective dose of 160 mg/kg, iv measured on day 50; assay type: functional; conditions: PANC-1, iv, 1200 h, time 50 day, read-out: TGI
# [23] = tested on: BXPC-3; experiment: Antitumour activity against human BXPC-3 cells xenografted in Crl:Nu-Foxnl nu mouse assessed as inhibition of tumour growth at total effective dose of 40 mg/kg, iv measured on day 34; assay type: functional; conditions: BXPC-3, iv, 816 h, time 34 day, read-out: TGI
ΔTm [11],ΔTm [12],ΔTm [13],ΔTm [14],SMILES,IC50 [1],IC50 [3],IC50 [4],IC50 [5],IC50 [6],IC50 [7],IC50 [16],IC50 [17],also measured
21.9 °C,23.3 °C,23.7 °C,3.4 °C,Cc1cc(NCCCN(C)CCCNc2ccc3ncn4c5ccccc5c(=O)c2c34)c([N+](=O)[O-])c2cc3ccccc3nc12,65 nM,65 nM,98 nM,87 nM,224 nM,1180 nM,,,IC50 [2]: 25 nM; inhibition in vivo at 160 mg/kg [8]: 84%; inhibition in vivo at 160 mg/kg [9]: 47%; inhibition in vivo at 120 mg/kg [10]: 62%
19.3 °C,31.6 °C,19.5 °C,10.4 °C,O=c1c2ccccc2n2cnc3ccc(NCCNc4c5ccccc5nc5cccc([N+](=O)[O-])c45)c1c32,40 nM,102 nM,37 nM,64 nM,138 nM,86 nM,27 nM,44 nM,IC50 [15]: 82 nM; inhibition in vivo at 16 mg/kg [18]: 60%; inhibition in vivo at 16 mg/kg [19]: 76%
32.8 °C,33.3 °C,28.3 °C,4.6 °C,COc1ccc2c(c1)c(=O)c1c(NCCCN3CCN(CCC(N)c4ccc5nc6ccccc6cc5c4[N+](=O)[O-])CC3)ccc3ncn2c31 (stereo not given),21 nM,28 nM,40 nM,36 nM,75 nM,122 nM,38 nM,27 nM,inhibition in vivo at 48 mg/kg [20]: 32%; inhibition in vivo at 16 mg/kg [21]: 80%; inhibition in vivo at 160 mg/kg [22]: 64%; inhibition in vivo at 40 mg/kg [23]: 63%
